How the values were obtained:
[1] = system: HEK293FT and YUNK1 cells; experiment: Clonogenic survival assay, PARP inhibitors, knockdown or metabolite-treated cells; assay type: cell-based, human; conditions: knockdown of SDHB and FH or exogenous dimethyl-fumarate or succinate (FIGS. 4A-4B, 8E-8I)
[2] = system: UOK 262; experiment: Clonogenic survival assay in cell lines of renal origin; assay type: cell-based, human; conditions: FIG. 4C (BMN-673), FIG. 8J (mitomycin C)
[3] = system: shFH-expressing HEK293FT tumor xenografts; experiment: Tumor growth delay assay, shFH HEK293FT xenografts; assay type: in vivo, mouse
Source text: In vivo efficacy studies: HEK293FT xenografts. Female athymic nu/nu mice (Hsd:Athymic Nude-Foxnlnu, Envigo) were used for all in vivo xenograft studies. Mice were quarantined for at least 1 week before experimental manipulation. Tumors were formed using shRNA-expressing versions of the tumorigenic human embryonic kidney cell-derived line, HEK293FT. HEK293FT is a subline of HEK293 cells that has been transformed by expression of SV40 Large T-antigen. […], or shCTRL (non-targeted control) expressing HEK293FT cells were implanted subcutaneously (5×10^6 cells in 0.1 cc PBS) in the right flank of nude mice. Two efficacy studies were conducted. In one, mice were randomized into treatment and non-treated groups (10 mice/group) at day 3, with treatment initiation 4 days post implant. In a second independent in vivo efficacy study, mice were injected as above with 10 mice per group, and treatment was started only once the tumor volumes reached […]. For both studies, mice were visually observed daily and tumors were measured three times per week by calipers to determine tumor volume using the formula: Volume=L×W×W×0.532. Mice were fed with a grain based rodent diet containing Doxycycline at 200 mg/kg (Bioserv, Catalog #S3888). BMN-673 was solubilized in DMSO and diluted with PBS containing 10% dimethylacetamide (Sigma-Aldrich) and 6% Solutol (Sigma). BMN-673 (0.5 mg/kg, 0.2 cc), or vehicle (0.2 cc) was administered by oral gavage once daily for the duration of the experiment. Mean (geometric) tumor volume (mm^3) was plotted over time to monitor tumor growth. P-values were determined by ANOVA with repeated measures. In vivo efficacy studies: UOK 262 xenografts. Female athymic nu/nu mice (Hsd:Athymic Nude-Foxnlnu, Envigo) were used for all in vivo xenograft studies. Mice were quarantined for at least 1 week before experimental manipulation. UOK 262 cells were implanted subcutaneously using 5×10^6 cells in 0.1 cc PBS mixed with 0.1 cc of Corning Matrigel Matrix (Cat. No. 354234) per animal. Mice were randomized at day 3 day into two groups (n=10/group). […]

[4] = system: shCTRL-expressing HEK293FT tumor xenografts; experiment: Tumor growth delay assay, shCTRL HEK293FT xenografts; assay type: in vivo, mouse
Source text: In vivo efficacy studies: HEK293FT xenografts. Female athymic nu/nu mice (Hsd:Athymic Nude-Foxnlnu, Envigo) were used for all in vivo xenograft studies. Mice were quarantined for at least 1 week before experimental manipulation. Tumors were formed using shRNA-expressing versions of the tumorigenic human embryonic kidney cell-derived line, HEK293FT. HEK293FT is a subline of HEK293 cells that has been transformed by expression of SV40 Large T-antigen. […], or shCTRL (non-targeted control) expressing HEK293FT cells were implanted subcutaneously (5×10^6 cells in 0.1 cc PBS) in the right flank of nude mice. Two efficacy studies were conducted. In one, mice were randomized into treatment and non-treated groups (10 mice/group) at day 3, with treatment initiation 4 days post implant. In a second independent in vivo efficacy study, mice were injected as above with 10 mice per group, and treatment was started only once the tumor volumes reached […]. For both studies, mice were visually observed daily and tumors were measured three times per week by calipers to determine tumor volume using the formula: Volume=L×W×W×0.532. Mice were fed with a grain based rodent diet containing Doxycycline at 200 mg/kg (Bioserv, Catalog #S3888). […] P-values were determined by ANOVA with repeated measures. […]

[5] = LC/MS analysis of intratumoral BMN-673; assay type: in vivo, mouse; conditions: 24 h after single gavage dose of 1 or 10 mg/kg, LC/MS (FIG. 4J)
Source text: In vivo efficacy studies: HEK293FT xenografts. Female athymic nu/nu mice (Hsd:Athymic Nude-Foxnlnu, Envigo) were used for all in vivo xenograft studies. Mice were quarantined for at least 1 week before experimental manipulation. Tumors were formed using shRNA-expressing versions of the tumorigenic human embryonic kidney cell-derived line, HEK293FT. HEK293FT is a subline of HEK293 cells that has been transformed by expression of SV40 Large T-antigen. […], or shCTRL (non-targeted control) expressing HEK293FT cells were implanted subcutaneously (5×10^6 cells in 0.1 cc PBS) in the right flank of nude mice. Two efficacy studies were conducted. In one, mice were randomized into treatment and non-treated groups (10 mice/group) at day 3, with treatment initiation 4 days post implant. […] For both studies, mice were visually observed daily and tumors were measured three times per week by calipers to determine tumor volume using the formula: Volume=L×W×W×0.532. […] P-values were determined by ANOVA with repeated measures. […] The concentrations of BMN-673 in tumor samples were determined using liquid chromatography with tandem mass spectrometry (LC-MS/MS). […] BMN673 was monitored using the positive electrospray ionization mode at the most sensitive and specific mass transition, m/z 381.0>228.8. […]

SMILES: Cn1ncnc1[C@H]1c2n[nH]c(=O)c3cc(F)cc(c23)N[C@@H]1c1ccc(F)cc1 [BMN-673, BMN-673 (Talazoparib)]
- sensitivity to the PARP inhibitor, clonogenic survival [1]: dramatic sensitivity
- sensitivity of UOK 262 relative to FH-proficient cell lines of renal origin, clonogenic survival [2]: markedly more sensitive
- tumor growth vs vehicle, FH-deficient tumors ([3]; treatment after tumors reached 95-150 mm^3, 0.5 mg/kg oral gavage once daily (FIG. 4H)): inhibited the growth
- tumor growth vs vehicle, shFH tumors ([3]; treatment beginning four days after implantation, 0.5 mg/kg oral gavage once daily (FIG. 4E)): robust suppression of tumor growth
- growth of FH-deficient tumors ([3]; two separate sets of in vivo efficacy studies, 0.5 mg/kg oral gavage once daily): significantly inhibited the growth
- tumor growth vs vehicle, shCTRL tumors ([4]; treatment after tumors reached 95-150 mm^3, 0.5 mg/kg oral gavage once daily (FIG. 4I)): no growth inhibition
- tumor growth vs vehicle, shCTRL tumors ([4]; treatment beginning four days after implantation, 0.5 mg/kg oral gavage once daily (FIG. 4F)): no effect
- intra-tumoral BMN-673 levels, shSDHB vs shCTRL HEK293FT tumors [5]: no significant difference

From patent publication US11311538B2, “Compositions and methods for targeting cancers” (YALE UNIVERSITY, priority 2018, dated 2022)
